Source: PMC6013775, “Inhibition of the key enzyme of sialic acid biosynthesis by C6-Se modified N-acetylmannosamine analogs” (Chemical Science, 2016)
Where “and” joins values, the source holds several entries; their conditions need not be identical. Identical values can stand only once.

Molecular target: T1, UDP-GlcNAc-2-epimerase (GNE) activity of GNE/MNK (Mus musculus, UniProt Q91WG8)
T1 construct: Analysis of GNE/MNK in mouse liver cytosol; from tissue; host or cells: mouse liver cytosol (supernatant of liver homogenate)
T1 sequence (Q91WG8 1-722): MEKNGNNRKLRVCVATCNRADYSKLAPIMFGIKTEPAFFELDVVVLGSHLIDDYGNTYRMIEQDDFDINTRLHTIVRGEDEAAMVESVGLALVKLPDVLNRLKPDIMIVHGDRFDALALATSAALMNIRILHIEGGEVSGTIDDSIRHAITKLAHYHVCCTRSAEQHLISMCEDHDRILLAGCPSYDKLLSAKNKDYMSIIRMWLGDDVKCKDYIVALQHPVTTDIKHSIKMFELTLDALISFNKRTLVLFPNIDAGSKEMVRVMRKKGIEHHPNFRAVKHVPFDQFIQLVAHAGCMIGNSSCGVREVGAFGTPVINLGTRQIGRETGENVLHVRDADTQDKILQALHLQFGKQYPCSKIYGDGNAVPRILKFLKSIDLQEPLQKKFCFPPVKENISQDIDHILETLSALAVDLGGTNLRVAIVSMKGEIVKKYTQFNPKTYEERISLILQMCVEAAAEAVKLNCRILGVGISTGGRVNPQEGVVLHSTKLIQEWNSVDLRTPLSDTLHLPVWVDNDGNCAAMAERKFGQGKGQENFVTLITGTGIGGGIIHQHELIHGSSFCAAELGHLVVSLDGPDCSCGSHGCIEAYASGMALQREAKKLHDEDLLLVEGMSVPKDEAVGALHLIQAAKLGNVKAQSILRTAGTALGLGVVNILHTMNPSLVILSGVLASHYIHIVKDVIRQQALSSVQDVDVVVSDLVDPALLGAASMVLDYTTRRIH
Test: Colorimetric GNE activity assay in mouse liver cytosol
Type: biochemical
Conditions: 1 mM UDP-GlcNAc, 45 min at 37 °C, read-out: IC50 for inhibiting GNE activity
From the text: With the potent diselenide compound 14b in hand, we further studied the binding properties of this potent MNK inhibitor, which is to our knowledge the strongest MNK inhibitor reported to date. Diselenide 14b inhibited MNK activity in a dose dependent manner (Fig. 2A). […] Additionally, we tested if diselenide 14b influenced the GNE activity of the bifunctional GNE/MNK. […] To evaluate the specificity of the inhibitor towards other sugar kinases, we performed further inhibition studies using human GlcNAc kinase (GNK) and hexokinase (HK) from yeast (details in ESI ^†).
Evaluation of the influence of 14b on UDP-GlcNAc-2-epimerase activity
To study, if diselenide 14b interferes with the activity of the GNE domain of the bifunctional enzyme, we used enzymes from mouse liver homogenates. […] The sample was incubated at 37 °C for 20 min and the absorbance was […]

CC(=O)N[C@@H]1C(O)O[C@H](C[Se][Se]C[C@H]2OC(O)[C@@H](NC(C)=O)[C@@H](O)[C@@H]2O)[C@@H](O)[C@@H]1O (stereo partly shown) [Compound 14b]
IC50: ~200 µM and 182 µM
